One experiment addresses T1, His6-TEV-PPARγ-(234-505) (Homo sapiens, UniProt P37231).
T1 construct: The His6-TEV-PPARγ-(234-505) protein for assay was expressed and purified; TEV cleavage site (N); made in house
T1 sequence (P37231 234-505): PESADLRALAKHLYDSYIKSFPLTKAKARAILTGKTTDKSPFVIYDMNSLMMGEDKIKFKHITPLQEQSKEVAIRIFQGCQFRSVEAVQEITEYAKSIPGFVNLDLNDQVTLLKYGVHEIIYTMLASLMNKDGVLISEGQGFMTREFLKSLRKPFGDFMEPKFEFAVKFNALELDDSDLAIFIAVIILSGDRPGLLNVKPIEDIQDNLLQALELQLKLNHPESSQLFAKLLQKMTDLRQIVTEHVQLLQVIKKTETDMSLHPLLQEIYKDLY
Briefly: TR-FRET Assay to Measure Co-R Peptide Recruitment to PPARγ. As to conditions: Co-R peptide (SMRT-ID2) recruitment, top final concentration 20 μM, read-out: TR-FRET i-Ag, AC50. The format is biochemical. In outline:
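Corepressor recruitment is measured by adding terbium-labeled anti-His antibody and FITC SMRT-ID2 peptide, at 5 and 200 nM final, after a 20-minute room-temperature protein–compound incubation. After one further hour, signal is converted to percent response between DMSO and 500 nM T0070907 wells.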
Background: TR-FRET usually uses a lanthanide donor and a delayed reading to cut background.

Another experiment deals with UM-UC-9 engineered cells. Briefly: Cell proliferation / short-term viability assay, CellTiter-Glo 144 h. The format is cell-based, human. As to conditions: read-out: CTGlo 144 h UMUC9.5, G150. The gist of the method: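 Viability read by CellTiter-Glo 2.0 luminescence at day 7 versus DMSO-vehicle wells and a T0 plate measured on day 0. Cells: UM-UC-9 engineered assay-ready stocks, 500 cells/well in high-glucose DMEM with 10% FBS, 37° C, 5% CO2.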
A general note: In ATP-based viability assays light output follows the ATP content of the culture.

Like-named read-outs stand apart in the source and are kept apart here. Some results are limits rather than exact numbers.

In the case of `COc1cc(-c2[nH]nc(C(=O)N3CCC(C(=O)NC4CCC(C)CC4)CC3)c2F)ccn1` (mixture of isomers) [Example 102], the AC50 at His6-TEV-PPARγ-(234-505) stood at 321 nM. Also, in the experiment on UM-UC-9 engineered cells (Homo sapiens, UM-UC-9, 144 h), the IC50 came to 643 nM.

Take “(S)-4-(5-(5-fluoro-2-methoxypyridin-4-yl)-1H-pyrazole-3-carbonyl)-N-((1r,4S)-4-hydroxy-4-(perfluoroethyl)cyclohexyl)-4-azaspiro[2.5]octane-7-carboxamide and (S)-4-(5-(5-fluoro-2-methoxypyridin-4-yl)-1H-pyrazole-3-carbonyl)-N-((1s,4R)-4-hydroxy-4-(perfluoroethyl)cyclohexyl)-4-azaspiro[2.5]octane-7-carboxamide [Example 373]”: the AC50 on His6-TEV-PPARγ-(234-505) is 11.7 nM. Also, the IC50 in the experiment on UM-UC-9 engineered cells was 3 nM.

For the compound `COc1cc(-c2cc(C(=O)N3CCC(C(=O)NC4CCCn5ccnc54)CC34CC4)n[nH]2)c(F)cn1` (mixture of isomers) [Example 479, (S)-4-(5-(5-fluoro-2-methoxypyridin-4-yl)-1H-pyrazole-3-carbonyl)-N—((R)-5,6,7,8-tetrahydroimidazo[1,2-a]pyridin-8-yl)-4-azaspiro[2.5]octane-7-carboxamide and (S)-4-(5-(5-fluoro-2-methoxypyridin-4-yl)-1H-pyrazole-3-carbonyl)-N—((S)-5,6,7,8-tetrahydroimidazo[1,2-a]pyridin-8-yl)-4-azaspiro[2.5]octane-7-carboxamide], on His6-TEV-PPARγ-(234-505), the AC50 amounted to 132 nM. In addition, in the experiment on UM-UC-9 engineered cells, the IC50 turned out to be 1470 nM.

`COc1cc(-c2cc(C(=O)N3CCC(C(=O)NC4C(=O)N(C)Cc5ccccc54)CC3)n[nH]2)c(Cl)cn1` (racemic) [Example 240, 1-(5-(5-chloro-2-methoxypyridin-4-yl)-1H-pyrazole-3-carbonyl)-N-(2-methyl-3-oxo-1,2,3,4-tetrahydroisoquinolin-4-yl)piperidine-4-carboxamide]: the AC50 at His6-TEV-PPARγ-(234-505) was 708 nM. Further, the IC50 in the experiment with UM-UC-9 engineered cells (Homo sapiens, UM-UC-9, 144 h) was found to be 6050 nM.

With `CO[C@]1(C(F)(F)F)CC[C@@H](NC(=O)[C@@H]2CCN(C(=O)c3cc(-c4cc(C)ncc4F)[nH]n3)C3(CC3)C2)CC1` (single isomer, unassigned) [Example 293-A], on His6-TEV-PPARγ-(234-505), the AC50 was found to be 281 nM. Moreover, in the experiment on UM-UC-9 engineered cells (Homo sapiens, UM-UC-9, 144 h), the IC50 amounted to 874 nM.

For the compound `COc1cc(-c2cc(C(=O)N3CCC(C(=O)NC4C(C)(C)C(N5CCC(F)(F)C5)C4(C)C)CC34CC4)n[nH]2)c(F)cn1` (mixture of isomers) [Example 378, (S)—N-((1s,3R)-3-(3,3-difluoropyrrolidin-1-yl)-2,2,4,4-tetramethylcyclobutyl)-4-(5-(5-fluoro-2-methoxypyridin-4-yl)-1H-pyrazole-3-carbonyl)-4-azaspiro[2.5]octane-7-carboxamide and (S)—N-((1r,3S)-3-(3,3-difluoropyrrolidin-1-yl)-2,2,4,4-tetramethylcyclobutyl)-4-(5-(5-fluoro-2-methoxypyridin-4-yl)-1H-pyrazole-3-carbonyl)-4-azaspiro[2.5]octane-7-carboxamide], the AC50 at His6-TEV-PPARγ-(234-505) turned out to be 130 nM. For the same compound, the IC50 with UM-UC-9 engineered cells worked out at 224 nM.

As for `COc1cc(-c2cc(C(=O)N3CCC(C(=O)NCc4ccc(C)cn4)CC3)n[nH]2)c(Cl)cn1` [Example 176, 1-(5-(5-chloro-2-methoxypyridin-4-yl)-1H-pyrazole-3-carbonyl)-N-((5-methylpyridin-2-yl)methyl)piperidine-4-carboxamide], the AC50 at His6-TEV-PPARγ-(234-505) came to 376 nM. In addition, the IC50 in the experiment on UM-UC-9 engineered cells (Homo sapiens, UM-UC-9, 144 h) is 1840 nM.

Consider `COc1cc(-c2cc(C(=O)N3CC[C@@H](C(=O)N[C@@H]4CCN(CC(C)(C)O)C4)CC34CC4)[nH]n2)c(F)cn1` [Example 344-A, (R)-4-(3-(5-fluoro-2-methoxypyridin-4-yl)-1H-pyrazole-5-carbonyl)-N—((R)-1-(2-hydroxy-2-methylpropyl)pyrrolidin-3-yl)-4-azaspiro[2.5]octane-7-carboxamide], for which, on His6-TEV-PPARγ-(234-505), the AC50 turned out to be 14800 nM. Besides, the IC50 in the experiment on UM-UC-9 engineered cells (Homo sapiens, UM-UC-9, 144 h) was over 10000 nM.

Regarding `COc1cc(-c2cc(C(=O)N3CCC(C(=O)NCc4ccc5c(c4)C(C)(C)C(=O)N5)CC3)n[nH]2)c(Cl)cn1` [Example 242, 1-(5-(5-chloro-2-methoxypyridin-4-yl)-1H-pyrazole-3-carbonyl)-N-((3,3-dimethyl-2-oxoindolin-5-yl)methyl)piperidine-4-carboxamide], the AC50 on His6-TEV-PPARγ-(234-505) came to 74.2 nM. Further, the IC50 in the experiment on UM-UC-9 engineered cells (Homo sapiens, UM-UC-9, 144 h) came to 1660 nM.

In the case of `COc1cc(-c2cc(C(=O)N3CCC(C(=O)NC4CCN(c5cccnc5)C4)CC34CC4)n[nH]2)c(F)cn1` (mixture of isomers) [Example 390, (S)-4-(5-(5-fluoro-2-methoxypyridin-4-yl)-1H-pyrazole-3-carbonyl)-N—((R)-1-(pyridin-3-yl)pyrrolidin-3-yl)-4-azaspiro[2.5]octane-7-carboxamide and (S)-4-(5-(5-fluoro-2-methoxypyridin-4-yl)-1H-pyrazole-3-carbonyl)-N—((S)-1-(pyridin-3-yl)pyrrolidin-3-yl)-4-azaspiro[2.5]octane-7-carboxamide], the AC50 at His6-TEV-PPARγ-(234-505) worked out at 4.2 nM. The IC50 in the experiment with UM-UC-9 engineered cells is 7.1 nM.

Regarding `COc1cc(-c2cc(C(=O)N3CC[C@H](C(=O)NCc4ncc(F)cc4C)CC34CC4)n[nH]2)c(F)cn1` [Example 361, (S)-4-(5-(5-fluoro-2-methoxypyridin-4-yl)-1H-pyrazole-3-carbonyl)-N-((5-fluoro-3-methylpyridin-2-yl)methyl)-4-azaspiro[2,5]octane-7-carboxamide], the AC50 on His6-TEV-PPARγ-(234-505) worked out at 10.2 nM. Moreover, the IC50 in the experiment with UM-UC-9 engineered cells (Homo sapiens, UM-UC-9, 144 h) amounted to 17.8 nM.

Take `COc1cc(-c2cc(C(=O)N3CC[C@H](C(=O)NC4CCN(c5cnc(C)nc5)C4)CC34CC4)n[nH]2)c(F)cn1` (single isomer, unassigned) [Example 453-B]: the AC50 at His6-TEV-PPARγ-(234-505) stood at 8.2 nM. Moreover, in the experiment with UM-UC-9 engineered cells, the IC50 worked out at 398 nM.

Consider `COc1cc(-c2cc(C(=O)N3CC[C@H](C(=O)NC(C)C45CCC(O)(CC4)CC5)CC34CC4)n[nH]2)c(F)cn1` (single isomer, unassigned) [Example 411-A], for which the AC50 at His6-TEV-PPARγ-(234-505) turned out to be 160 nM. In addition, the IC50 with UM-UC-9 engineered cells was 527 nM.

`COc1cc(-c2cc(C(=O)N3CCC(C(=O)NC4CCN(CC(F)(F)CO)C4)CC34CC4)n[nH]2)c(F)cn1` (mixture of isomers) [Example 459, (S)—N—((S)-1-(2,2-difluoro-3-hydroxypropyl)pyrrolidin-3-yl)-4-(5-(5-fluoro-2-methoxypyridin-4-yl)-1H-pyrazole-3-carbonyl)-4-azaspiro[2.5]octane-7-carboxamide and (S)—N—((R)-1-(2,2-difluoro-3-hydroxypropyl)pyrrolidin-3-yl)-4-(5-(5-fluoro-2-methoxypyridin-4-yl)-1H-pyrazole-3-carbonyl)-4-azaspiro[2.5]octane-7-carboxamide]: the AC50 at His6-TEV-PPARγ-(234-505) was 11.7 nM. Also, the IC50 with UM-UC-9 engineered cells came to 102 nM.

Regarding `Cc1cc(-c2cc(C(=O)N3CC[C@H](C(=O)N[C@H]4CC[C@@](O)(C(F)(F)F)CC4)CC34CC4)n[nH]2)c(F)cn1` (single isomer, unassigned) [Example 287-A], the AC50 at His6-TEV-PPARγ-(234-505) amounted to 2.3 nM. Besides, in the experiment with UM-UC-9 engineered cells (Homo sapiens, UM-UC-9, 144 h), the IC50 turned out to be 2.4 nM.

In the case of `COc1cc(-c2cc(C(=O)N3CCC(C(=O)NC4CCC(O)(C(F)(F)F)CC4)CC34CC4)n[nH]2)ncn1` (single isomer, unassigned) [Example 338-B], the AC50 on His6-TEV-PPARγ-(234-505) came out at 723 nM. Further, the IC50 in the experiment with UM-UC-9 engineered cells came out at 1320 nM.

Turning to `COc1cc(-c2cc(C(=O)N3CC[C@H](C(=O)NC4CCC5(COC5)c5cccnc54)CC34CC4)n[nH]2)c(F)cn1` (stereo partly drawn) [Example 496, (7S)—N-(7′,8′-dihydro-6′H-spiro[oxetane-3,5′-quinolin]-8′-yl)-4-(5-(5-fluoro-2-methoxypyridin-4-yl)-1H-pyrazole-3-carbonyl)-4-azaspiro[2.5]octane-7-carboxamide], the AC50 at His6-TEV-PPARγ-(234-505) was found to be 9.6 nM. Further, the IC50 in the experiment on UM-UC-9 engineered cells (Homo sapiens, UM-UC-9, 144 h) came to 68.2 nM.

Turning to `COc1cc(-c2cc(C(=O)N3CCC(C(=O)NC(C)c4cccc(Cl)c4)CC3)n[nH]2)c(Cl)cn1` (single isomer, unassigned) [Example 115-B], the AC50 on His6-TEV-PPARγ-(234-505) (listed as 115b) is 59.5 nM. The IC50 with UM-UC-9 engineered cells (listed as 115b) is 263 nM.

With `COc1cc(-c2cc(C(=O)N3CCC(C(=O)N[C@H]4CC[C@@](O)(C(F)(F)F)CC4)CC3)n[nH]2)c(Cl)cn1` [Example 199, 1-(5-(5-chloro-2-methoxypyridin-4-yl)-1H-pyrazole-3-carbonyl)-N-((1r,4r)-4-hydroxy-4-(trifluoromethyl)cyclohexyl)piperidine-4-carboxamide], the AC50 at His6-TEV-PPARγ-(234-505) turned out to be 32 nM. The IC50 in the experiment with UM-UC-9 engineered cells (Homo sapiens, UM-UC-9, 144 h) came out at 140 nM.

On to `COc1cc(-c2cc(C(=O)N3CC[C@H](C(=O)NC45CC(C4)N(CC(C)(C)F)C5)CC34CC4)n[nH]2)c(F)cn1` [Example 442, (S)-4-(5-(5-fluoro-2-methoxypyridin-4-yl)-1H-pyrazole-3-carbonyl)-N-(2-(2-fluoro-2-methylpropyl)-2-azabicyclo[2.1.1]hexan-4-yl)-4-azaspiro[2.5]octane-7-carboxamide], for which the AC50 at His6-TEV-PPARγ-(234-505) stood at 399 nM. The IC50 with UM-UC-9 engineered cells (Homo sapiens, UM-UC-9, 144 h) is 583 nM.

With `COc1cc(-c2cc(C(=O)N3CCC(NC(=O)C4CCC(O)(C(F)(F)F)CC4)CC34CC4)n[nH]2)c(F)cn1` (single isomer, unassigned) [Example 347-B], at His6-TEV-PPARγ-(234-505), the AC50 turned out to be 198 nM. In addition, the IC50 in the experiment with UM-UC-9 engineered cells stood at 600 nM.

These data come from patent US12606541B2, “PPARg modulators and methods of use” (Eisai R&D Management Co., Ltd., priority 2020, dated 2026).
